Test results published in patent publication US20230055237A1, “COMPOUNDS AND METHODS FOR THE TREATMENT OF CYSTIC FIBROSIS” (Flatley Discovery Lab, LLC, priority 2019, published 2023).

Target: T1, CFTR (Homo sapiens, UniProt P13569, DEL508-508)
T1 construct: Primary CF airway epithelial cells were obtained from the UNC Cystic Fibrosis Tissue Procurement and Cell Culture Core; host or cells: primary CF airway epithelial cells, differentiated at the air-liquid interface
Assay: Equivalent current assay in primary CF airway epithelial cells (NAUC, combination with 1st site corrector FDL169 or VX-809)
Type: cell-based
Settings: 37° C., 24 h

[1] = test compound 1 μM in combination with 1st site corrector FDL169 (3 μM)
[2] = test compound 3 μM in combination with 1st site corrector FDL169 (3 μM)
[3] = test compound 1 μM in combination with 1st site corrector VX-809 (3 μM)
[4] = test compound 3 μM in combination with 1st site corrector VX-809 (3 μM)
[5] = test compound 10 μM in combination with 1st site corrector FDL169 (3 μM)
[6] = test compound 10 μM in combination with 1st site corrector VX-809 (3 μM)

T1 sequence (P13569 with tags, fused parts or gaps DEL508-508): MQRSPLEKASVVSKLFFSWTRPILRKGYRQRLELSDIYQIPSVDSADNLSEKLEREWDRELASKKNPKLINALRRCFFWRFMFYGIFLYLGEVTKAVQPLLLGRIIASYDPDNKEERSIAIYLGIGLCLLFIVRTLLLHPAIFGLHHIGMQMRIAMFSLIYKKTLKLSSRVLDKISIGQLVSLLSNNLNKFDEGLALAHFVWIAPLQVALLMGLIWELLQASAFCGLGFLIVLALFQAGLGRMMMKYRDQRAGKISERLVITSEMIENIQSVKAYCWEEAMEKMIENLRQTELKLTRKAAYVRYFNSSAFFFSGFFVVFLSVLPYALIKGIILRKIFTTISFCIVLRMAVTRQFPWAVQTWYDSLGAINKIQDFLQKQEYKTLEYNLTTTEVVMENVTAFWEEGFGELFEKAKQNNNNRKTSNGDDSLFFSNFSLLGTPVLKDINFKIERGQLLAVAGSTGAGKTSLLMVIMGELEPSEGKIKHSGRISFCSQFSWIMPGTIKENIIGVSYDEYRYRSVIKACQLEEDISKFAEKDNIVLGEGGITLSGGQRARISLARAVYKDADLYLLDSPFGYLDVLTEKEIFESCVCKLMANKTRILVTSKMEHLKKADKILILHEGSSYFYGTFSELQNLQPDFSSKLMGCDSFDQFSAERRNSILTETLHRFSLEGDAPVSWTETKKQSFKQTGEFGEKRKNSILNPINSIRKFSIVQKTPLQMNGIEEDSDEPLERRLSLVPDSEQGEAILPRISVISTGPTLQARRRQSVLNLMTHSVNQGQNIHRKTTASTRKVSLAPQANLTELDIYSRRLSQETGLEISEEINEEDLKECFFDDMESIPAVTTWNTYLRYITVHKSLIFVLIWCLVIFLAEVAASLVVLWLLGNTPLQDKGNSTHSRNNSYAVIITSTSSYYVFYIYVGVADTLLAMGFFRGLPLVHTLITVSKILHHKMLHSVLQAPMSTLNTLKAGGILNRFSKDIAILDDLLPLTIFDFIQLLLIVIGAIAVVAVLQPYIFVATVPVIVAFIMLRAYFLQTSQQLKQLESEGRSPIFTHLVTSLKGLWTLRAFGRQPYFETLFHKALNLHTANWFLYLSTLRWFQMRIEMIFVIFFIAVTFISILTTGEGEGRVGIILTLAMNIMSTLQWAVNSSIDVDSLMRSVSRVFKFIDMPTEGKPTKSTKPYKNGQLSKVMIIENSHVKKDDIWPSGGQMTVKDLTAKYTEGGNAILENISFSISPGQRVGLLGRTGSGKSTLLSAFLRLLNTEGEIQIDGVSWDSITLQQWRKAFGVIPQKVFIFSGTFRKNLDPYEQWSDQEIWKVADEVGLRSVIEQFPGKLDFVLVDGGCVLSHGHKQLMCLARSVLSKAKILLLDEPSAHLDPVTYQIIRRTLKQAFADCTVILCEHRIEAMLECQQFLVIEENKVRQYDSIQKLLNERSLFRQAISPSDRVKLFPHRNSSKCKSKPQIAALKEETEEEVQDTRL

Row | Compound | Nauc @ 1 μM [1] | Nauc @ 3 μM [2] | Nauc @ 1 μM [3] | Nauc @ 3 μM [4] | Nauc @ 10 μM [5] | Nauc @ 10 μM [6]
1 | CN(C(=O)[C@H]1[C@H]2CC(F)(F)CN2[C@]2(C(=O)Nc3c(Cl)cc(Cl)cc32)[C@H]1C(=O)O)c1cccc(C(F)(F)F)c1 [Example 157] | ++ (NAUC “++” refers to an observed NAUC 170-140% of positive control) | ++ (NAUC “++” refers to an observed NAUC 170-140% of positive control) | – | – | – | –
2 | O=C(Nc1cccc(-c2ccccc2)c1)[C@H]1[C@H]2CC(F)(F)CN2[C@]2(C(=O)Nc3c(Cl)cc(Cl)cc32)[C@H]1C(=O)O [Example 124] | – | – | +++ (NAUC “+++” refers to an observed NAUC>170% of positive control) | +++ (NAUC “+++” refers to an observed NAUC>170% of positive control) | – | –
3 | O=C(Nc1ccc2nccnc2c1)[C@H]1[C@H]2CC(F)(F)CN2[C@]2(C(=O)Nc3c(Cl)cc(Cl)cc32)[C@H]1C(=O)O [Example 147] | + (NAUC “+” refers to an observed NAUC <140% of positive control) | + (NAUC “+” refers to an observed NAUC <140% of positive control) | – | – | – | –
4 | O=C(O)[C@H]1[C@@H](C(=O)N(CC2CC2)c2cccc(-c3ccccc3)c2)[C@H]2CC(F)(F)CN2[C@]12C(=O)Nc1c(Cl)cc(Cl)cc12 [Example 156] | +++ (NAUC “+++” refers to an observed NAUC>170% of positive control) | +++ (NAUC “+++” refers to an observed NAUC>170% of positive control) | – | – | ++ (NAUC “++” refers to an observed NAUC 170-140% of positive control) | –
5 | CN(C(=O)[C@H]1[C@H]2CC(F)(F)CN2C2(C(=O)Nc3cc(Cl)ccc32)[C@H]1C(=O)O)c1cc(Cl)cc(Cl)c1 (stereo partly drawn) [Example 101] | + (NAUC “+” refers to an observed NAUC <140% of positive control) | + (NAUC “+” refers to an observed NAUC <140% of positive control) | – | – | – | –
6 | O=C(Nc1cc(Cl)cc(Cl)c1)C1C(COCc2ccccc2)NC2(C(=O)Nc3c(Cl)cc(Cl)cc32)C1C(=O)O (stereo not drawn) [Example 32] | – | – | – | +++ (NAUC “+++” refers to an observed NAUC>170% of positive control) | – | +++ (NAUC “+++” refers to an observed NAUC>170% of positive control)
7 | O=C(O)[C@H]1[C@@H](C(=O)N(CC2CC2)c2cccc(CC(F)(F)F)c2)[C@H]2CC(F)(F)CN2[C@]12C(=O)Nc1c(Cl)cc(Cl)cc12 [Example 164] | +++ (NAUC “+++” refers to an observed NAUC>170% of positive control) | +++ (NAUC “+++” refers to an observed NAUC>170% of positive control) | – | – | +++ (NAUC “+++” refers to an observed NAUC>170% of positive control) | –
8 | O=C(Nc1ccc(O)cc1)C1C2CC(F)(F)CN2C2(C(=O)Nc3c(Cl)cc(Cl)cc32)C1C(=O)O (stereo not drawn) [Example 77.a] | – | – | – | – | – | + (NAUC “+” refers to an observed NAUC <140% of positive control)
9 | CC1(C)CC2C(C(=O)Nc3cc(Cl)c(OC(F)F)c(Cl)c3)C(C(=O)O)C3(C(=O)Nc4c(Cl)cc(Cl)cc43)N2C1 (stereo not drawn) [Example 8, 5,7-dichloro-1′-((3,5-dichloro-4-(difluoromethoxy)phenyl)carbamoyl)-6′,6′-dimethyl-2-oxo-1′,2′,5′,6′,7′,7a′-hexahydrospiro[indoline-3,3′-pyrrolizine]-2′-carboxylic acid] | – | – | – | +++ (NAUC “+++” refers to an observed NAUC>170% of positive control) | – | +++ (NAUC “+++” refers to an observed NAUC>170% of positive control)
10 | C[C@]1(O)C[C@@H]2[C@H](C(=O)Nc3cc(Cl)cc(Cl)c3)[C@H](C(N)=O)[C@@]3(C(=O)Nc4c(Cl)cc(Cl)cc43)N2C1 [Example 244, (1′R,2′S,6′S,7a′R)-5,7-dichloro-N1′-(3,5-dichlorophenyl)-6′-hydroxy-6′-methyl-2-oxo-1′,2′,5′,6′,7′,7a′-hexahydrospiro[indoline-3,3′-pyrrolizine]-1,2′-dicarboxamide] | – | – | + (NAUC “+” refers to an observed NAUC <140% of positive control) | + (NAUC “+” refers to an observed NAUC <140% of positive control) | – | + (NAUC “+” refers to an observed NAUC <140% of positive control)
11 | CC(C)(C)c1cccc(C(C)(C)CNC(=O)C2C3CC(F)(F)CN3C3(C(=O)Nc4c(Cl)cc(Cl)cc43)C2C(=O)O)c1 (single isomer, unassigned) [Example 288a, 1′-((2-(3-(tert-butyl)phenyl)-2-methylpropyl)carbamoyl)-5,7-dichloro-6′,6′-difluoro-2-oxo-1′,2′,5′,6′,7′,7a′-hexahydrospiro[indoline-3,3′-pyrrolizine]-2′-carboxylic acid] | – | – | +++ (NAUC “+++” refers to an observed NAUC>170% of positive control) | +++ (NAUC “+++” refers to an observed NAUC>170% of positive control) | – | +++ (NAUC “+++” refers to an observed NAUC>170% of positive control)
12 | O=C(Nc1cccc2cccnc12)[C@H]1[C@H]2CC(F)(F)CN2[C@]2(C(=O)Nc3c(Cl)cc(Cl)cc32)[C@H]1C(=O)O [Example 127] | – | – | + (NAUC “+” refers to an observed NAUC <140% of positive control) | + (NAUC “+” refers to an observed NAUC <140% of positive control) | – | –
13 | O=C(Nc1cc(Cl)cc(Cl)c1)C1CN(CC(F)(F)F)C2(C(=O)Nc3c(Cl)cc(Cl)cc32)C1C(=O)O (stereo not drawn) [Example 79c] | – | – | + (NAUC “+” refers to an observed NAUC <140% of positive control) | + (NAUC “+” refers to an observed NAUC <140% of positive control) | – | + (NAUC “+” refers to an observed NAUC <140% of positive control)
14 | Cc1oc(=O)oc1COC(=O)[C@H]1[C@@H](C(=O)N(C)c2cc(Cl)cc(Cl)c2)[C@H]2CC(F)(F)CN2C12C(=O)N(Cc1oc(=O)oc1C)c1c(Cl)cc(Cl)cc12 (mixture of isomers) [Example 250.3b, rac-(5-methyl-2-oxo-1,3-dioxo1-4-yl)methyl (1′R,2′S,3R,7a′R)-5,7-dichloro-1′-((3,5-dichlorophenyl)(methyl)carbamoyl)-6′,6′-difluoro-1-45-methyl-2-oxo-1,3-dioxol-4-yl)methyl)-2-oxo-1′,2′,5′,6′,7′,7a′-hexahydrospiro[indoline-3,3′-pyrrolizine]-2′-carboxylate] | – | – | – | – | – | + (NAUC “+” refers to an observed NAUC <140% of positive control)
15 | O=C(O)[C@H]1[C@@H](C(=O)N(CC2CCC2)c2cc(Cl)cc(Cl)c2)[C@H]2CC(F)(F)CN2[C@]12C(=O)Nc1c(Cl)cc(Cl)cc12 [Example 148] | +++ (NAUC “+++” refers to an observed NAUC>170% of positive control) | +++ (NAUC “+++” refers to an observed NAUC>170% of positive control) | – | – | +++ (NAUC “+++” refers to an observed NAUC>170% of positive control) | –
16 | CN(C(=O)[C@H]1[C@H]2CC(F)(F)CN2[C@]2(C(=O)Nc3c(Cl)cc(Cl)cc32)[C@H]1C(=O)O)c1cccc(-c2ccccc2)c1 [Example 161] | ++ (NAUC “++” refers to an observed NAUC 170-140% of positive control) | +++ (NAUC “+++” refers to an observed NAUC>170% of positive control) | – | – | ++ (NAUC “++” refers to an observed NAUC 170-140% of positive control) | –
17 | O=C(O)[C@H]1[C@@H](C(=O)N(CC2CC2)c2cc(Cl)cc(Cl)c2)[C@@H](C(F)(F)F)NC12C(=O)Nc1c(Cl)cc(Cl)cc12 (single isomer, unassigned) [Example 270b] | + (NAUC “+” refers to an observed NAUC <140% of positive control) | ++ (NAUC “++” refers to an observed NAUC 170-140% of positive control) | – | – | – | –
18 | CC(C)(C)CN(C(=O)[C@H]1[C@H]2CCCN2C2(C(=O)Nc3c(Cl)cc(Cl)cc32)[C@H]1C(=O)O)c1cc(Cl)cc(Cl)c1 (single isomer, unassigned) [Example 82.6b, (1′S,2′R,7a′S)-5,7-dichloro-1-((3,5-dichlorophenyl)(neopentyl)carbamoyl)-2-oxo-1′,2′,5′,6′,7′,7a′-hexahydrospiro[indoline-3,3′-pyrrolizine]-2′-carboxylic acid] | ++ (NAUC “++” refers to an observed NAUC 170-140% of positive control) | + (NAUC “+” refers to an observed NAUC <140% of positive control) | – | – | – | –
19 | Cc1ccc(CCNC(=O)C2C3CC(F)(F)CN3C3(C(=O)Nc4c(Cl)cc(Cl)cc43)C2C(=O)O)cc1 (stereo not drawn) [Example 49] | – | – | – | ++ (NAUC “++” refers to an observed NAUC 170-140% of positive control) | – | +++ (NAUC “+++” refers to an observed NAUC>170% of positive control)
20 | Cn1cnc(NC(=O)[C@H]2[C@H]3CC(F)(F)CN3[C@]3(C(=O)Nc4c(Cl)cc(Cl)cc43)[C@H]2C(=O)O)c1 [Example 142] | + (NAUC “+” refers to an observed NAUC <140% of positive control) | + (NAUC “+” refers to an observed NAUC <140% of positive control) | – | – | – | –
